In US11814391B2, “Macrocyclic compounds for the treatment of medical disorders” (Achillion Pharmaceuticals, Inc., priority 2018, dated 2023):

Molecular target: Human Factor D (Homo sapiens (Human), UniProt P00746)
Test: Human Factor D assay
Assay type: biochemical
Details: Human Factor D 80 nM, substrate Z-L-Lys-SBzl, A405; read-out: IC50 (Stars)
Protocol: The assay of Example 3 was used to determine the IC50's of the compounds. Other standard factor D inhibition assays are also available.
Human Factor D (purified from human serum, Complement Technology, Inc.) at 80 nM final concentration is incubated with test compound at various concentrations for 5 min at room temperature in 50 mM Tris, 1M NaCl, pH 7.5. A synthetic substrate Z-L-Lys-SBzI and DTNB (Ellman's reagent) are added to final concentrations of 100 μM each. Absorbance at 405 nm (A405) is recorded at 30 second intervals for 30 min using a microplate spectrophotometer. IC50 values are calculated by nonlinear regression of complement Factor D reaction rates as a function of test compound concentration.

Human Factor D, sequence (P00746 26-253): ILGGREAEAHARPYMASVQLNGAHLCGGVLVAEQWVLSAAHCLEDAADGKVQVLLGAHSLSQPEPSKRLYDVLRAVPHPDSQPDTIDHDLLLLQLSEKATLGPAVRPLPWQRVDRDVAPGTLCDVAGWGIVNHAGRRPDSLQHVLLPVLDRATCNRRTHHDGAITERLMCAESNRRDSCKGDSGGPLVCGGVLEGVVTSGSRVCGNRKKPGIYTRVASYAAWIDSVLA

Row | SMILES | IC50 [nM]
1 | CC(=O)c1nn2c3c(cc(-c4cnc(C)nc4)cc13)CCCCCCC(=O)NC[C@@]13C[C@@H](C(=O)Nc4nc(OC(F)(F)F)ccc4C)N(C(=O)C2)[C@@H]1C3 [Compound 1, (4^1R,4^3S,4^5R)-1^3-acetyl-N-(3-methyl-6-(trifluoromethoxy)pyridin-2-yl)-1^5-(2-methylpyrimidin-5-yl)-3,7-dioxo-1^1H-4^2,6-diaza-1(1,7)-indazola-4(2,5)-bicyclo[3.1.0]hexanacyclotridecaphane-4^3-carboxamide] | < 1000
2 | CC(=O)c1nn2c3c(cc(-c4cnc(C)nc4)cc13)CCCCCCC(=O)NC[C@@]13C[C@@H](C(=O)Nc4nc(Br)ccc4CN4CC(F)C4)N(C(=O)C2)[C@@H]1C3 [Compound 2, (4^1R,4^3S,4^5R)-1^3-acetyl-N-(6-bromo-3-((3-fluoroazetidin-1-yl)methyl)pyridin-2-yl)-1^5-(2-methylpyrimidin-5-yl)-3,7-dioxo-1^1H-4^2,6-diaza-1(1,7)-indazola-4(2,5)-bicyclo[3.1.0]hexanacyclotridecaphane-4^3-carboxamide] | < 1000
3 | CC(=O)c1nn2c3c(cc(N4CCCC4)cc13)CCCCCCC(=O)NC[C@@]13C[C@@H](C(=O)Nc4nc(C(F)(F)F)ccc4C)N(C(=O)C2)[C@@H]1C3 [Compound 3, (4^1R,4^3S,4^5R)-1^3-acetyl-N-(3-methyl-6-(trifluoromethyl)pyridin-2-yl)-3,7-dioxo-1^5-(pyrrolidin-l-yl)-1^1H-4^2,6-diaza-1(1,7)-indazola-4(2,5)-bicyclo[3.1.0]hexanacyclotridecaphane-4^3-carboxamide] | < 1000
4 | CC(=O)c1nn2c3c(cc(C4CC4)cc13)CCCCCCC(=O)NC[C@@]13C[C@@H](C(=O)Nc4nc(C(F)(F)F)ccc4C)N(C(=O)C2)[C@@H]1C3 [Compound 4, (4^1R,4^3S,4^5R)-1^3-acetyl-1^5-cyclopropyl-N-(3-methyl-6-(trifluoromethyl)pyridin-2-yl)-3,7-dioxo-1^1H-4^2,6-diaza-1(1,7)-indazola-4(2,5)-bicyclo[3.1.0]hexanacyclotridecaphane-4^3-carboxamide] | < 1000
5 | CC(=O)c1nn2c3c(cc(-c4nnc(C)o4)cc13)CCCCCCC(=O)NC[C@@]13C[C@@H](C(=O)Nc4nc(C(F)(F)F)ccc4C)N(C(=O)C2)[C@@H]1C3 [Compound 5, (4^1R,4^3S,4^5R)-1^3-acetyl-1^5-(5-methyl-1,3,4-oxadiazol-2-yl)-N-(3-methyl-6-(trifluoromethyl)pyridin-2-yl)-3,7-dioxo-1^1H-4^2,6-diaza-1(1,7)-indazola-4(2,5)-bicyclo[3.1.0]hexanacyclotridecaphane-4^3-carboxamide] | < 1000
6 | COc1cc2c3c(c1)c(C(C)=O)nn3CC(=O)N1[C@H](C(=O)Nc3nc(C(F)(F)F)ccc3C)C[C@@]3(CNC(=O)CCCCCC2)C[C@@H]13 [Compound 6, (4^1R,4^3S,4^5R)-1^3-acetyl-1^5-methoxy-N-(3-methyl-6-(trifluoromethyl)pyridin-2-yl)-3,7-dioxo-1^1H-4^2,6-diaza-1(1,7)-indazola-4(2,5)-bicyclo[3.1.0]hexanacyclotridecaphane-4^3-carboxamide] | < 1000
7 | CC(=O)c1nn2c3c(cc(Oc4ncc(C)cn4)cc13)CCCCCC(=O)NC[C@@]13C[C@@H](C(=O)Nc4nc(C(F)(F)F)ccc4C)N(C(=O)C2)[C@@H]1C3 [Compound 7, (4^1R,4^3S,4^5R)-1^3-acetyl-N-(3-methyl-6-(trifluoromethyl)pyridin-2-yl)-1^5-((5-methylpyrimidin-2-yl)oxy)-3,7-dioxo-1^1H-4^2,6-diaza-1(1,7)-indazola-4(2,5)-bicyclo[3.1.0]hexanacyclododecaphane-4^3-carboxamide] | < 1000
